Source: patent US8791118B2, “Pyridopyrazines as highly selective ras-Raf-Mek-Erk signal transduction pathway inhibitors” (Aeterna Zentaris GmbH, priority 2011, dated 2014)
Counter-ions that a name gives are not always drawn.

Assays:
Erk2 = Erk2 (Homo sapiens, UniProt P28482); assay: Erk2 alpha kinase assay (cell-free, ALPHA technology); assay type: biochemical; settings: 10 μM ATP
Description: The inhibitory effect of the compounds according to the invention was tested on various serine/threonine, tyrosine and lipid kinases in enzymatic assays. Recombinant human kinases such as, for example, Erk2, were used in this case, partly as full-length kinases, partly as shortened fragments, but at least consisting of the functional kinase domains. The commercial kinase proteins (Proqinase, Upstate) were used as recombinant fusion proteins with GST (glutathion-S-transferase) or His-Tag. Depending on the type of substrate, the various kinase reactions were quantified by means of suitable ALPHA™ beads (Perkin-Elmer). The substance testing is described in detail hereinafter for the Erk assay. […] a) MAPK-ALPHAs (e.g. […] The fluorescence was detected the following morning in a Envision plate reader (Perkin-Elmer). The %-inhibition values per substance concentration were calculated by means of the following formula from the raw data determined in the Envision plate reader[…]: Eight determinations were made for each control and two for the substance samples. […] The IC50 values were determined using GraphPadPrism.

Erk2, sequence (P28482 2-360 limits assumed): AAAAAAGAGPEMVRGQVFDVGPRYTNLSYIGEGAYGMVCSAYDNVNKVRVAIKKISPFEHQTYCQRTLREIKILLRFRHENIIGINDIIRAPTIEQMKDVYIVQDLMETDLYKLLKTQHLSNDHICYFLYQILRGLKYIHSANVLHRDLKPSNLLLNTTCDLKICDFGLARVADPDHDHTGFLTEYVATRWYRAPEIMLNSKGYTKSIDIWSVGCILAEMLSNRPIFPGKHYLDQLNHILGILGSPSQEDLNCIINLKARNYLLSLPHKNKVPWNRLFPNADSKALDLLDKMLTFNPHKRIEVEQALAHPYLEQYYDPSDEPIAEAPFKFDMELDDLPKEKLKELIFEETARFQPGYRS

| Compound | IC50 (Erk2) | melting point |
| --- | --- | --- |
| CCn1cc(-c2cnc3ccc(NC(=O)NCCCCc4ccccc4)nc3n2)cn1 [Compound 108, 1-[3-(1-Ethyl-1H-pyrazol-4-yl)-pyrido[2,3-b]pyrazin-6-yl]-3-(4-phenyl-butyl)-urea] | 4 nM | 207 to 208 °C |
| O=C(NCCCCc1ccccc1)Nc1ccc2ncc(-c3cnn(CCN4CCOCC4)c3)nc2n1 [Compound 127, 1-{3-[1-(2-Morpholin-4-yl-ethyl)-1H-pyrazol-4-yl]-pyrido[2,3-b]pyrazin-6-yl}-3-(4-phenyl-butyl)-urea] | 5 nM | – |
| C[C@H](CCCc1ccccc1)NC(=O)Nc1ccc2ncc(-c3cccnc3)nc2n1 [Compound 150, 1-((R)-1-Methyl-4-phenyl-butyl)-3-(3-pyridin-3-yl-pyrido[2,3-b]pyrazin-6-yl)-urea] | – | 218 to 220 °C |
| COc1ccc(-c2cnc3ccc(NC(=O)NCCCCc4ccccc4)nc3n2)cc1O [Compound 151, 1-[3-(3-Hydroxy-4-methoxy-phenyl)-pyrido[2,3-b]pyrazin-6-yl]-3-(4-phenyl-butyl)-urea] | – | 230 to 232 °C |
| O=C(NCCCCc1ccccc1)Nc1ccc2ncc(-c3ccoc3)nc2n1 [Compound 152, 1-(3-Furan-3-yl-pyrido[2,3-b]pyrazin-6-yl)-3-(4-phenyl-butyl)-urea] | – | 212 to 216 °C |
| COc1cc(CO)ccc1-c1cnc2ccc(NC(=O)N[C@H](C)CCCc3ccccc3)nc2n1 [Compound 156, 1-[3-(4-Hydroxymethyl-2-methoxy-phenyl)-pyrido[2,3-b]pyrazin-6-yl]-3-((R)-1-methyl-4-phenyl-butyl)-urea] | 1 nM | 168 to 170 °C |
| COc1ncccc1-c1cnc2ccc(NC(=O)N[C@H](C)CCCc3ccccc3)nc2n1 [Compound 161, 1-[3-(2-Methoxy-pyridin-3-yl)-pyrido[2,3-b]pyrazin-6-yl]-3-((R)-1-methyl-4-phenyl-butyl)-urea] | 2 nM | 161 to 163 °C |
| C[C@H](CCCc1ccccc1)NC(=O)Nc1ccc2ncc(N3CCOCC3)nc2n1 [Compound 166, 1-((R)-1-Methyl-4-phenyl-butyl)-3-(3-morpholin-4-yl-pyrido[2,3-b]pyrazin-6-yl)-urea] | 3 nM | 201 to 203 °C |
| O=C(NCCCCc1ccccc1)Nc1ccc2ncc(-c3ccc(O)c(F)c3)nc2n1 [Compound 174, 1-[3-(3-Fluoro-4-hydroxy-phenyl)-pyrido[2,3-b]-pyrazin-6-yl]-3-(4-phenyl-butyl)-urea] | 6 nM | – |
| Cc1n[nH]c(C)c1-c1cnc2ccc(NC(=O)N[C@H](C)CCCc3ccccc3)nc2n1 [Compound 177, 1-[3-(3,5-Dimethyl-1H-pyrazol-4-yl)-pyrido[2,3-b]pyrazin-6-yl]-3-((R)-1-methyl-4-phenyl-butyl)-urea] | 6 nM | 266 to 269 °C |
| COc1ccc(-c2cnc3ccc(NC(=O)NCCCCc4ccccc4)nc3n2)cc1OC [Compound 178, 1-[3-(3,4-Dimethoxy-phenyl)-pyrido[2,3-b]pyrazin-6-yl]-3-(4-phenyl-butyl)-urea] | 6 nM | 210 to 211 °C |
| C[C@H](CCCc1ccccc1)NC(=O)Nc1ccc2ncc(-c3cnn(C)c3)nc2n1 [Compound 180, 1-((R)-1-Methyl-4-phenyl-butyl)-3-[3-(1-methyl-1H-pyrazol-4-yl)-pyrido[2,3-b]pyrazin-6-yl]urea] | 6 nM | – |
| O=C(NCCCCc1ccccc1)Nc1ccc2ncc(-c3ccc(CO)cc3)nc2n1 [Compound 182, 1-[3-(4-Hydroxymethyl-phenyl)-pyrido[2,3-b]pyrazin-6-yl]-3-(4-phenyl-butyl)-urea] | – | 213 to 215 °C |
| C[C@H](CCCc1ccccc1)NC(=O)Nc1ccc2ncc(-c3ccc(O)c(F)c3)nc2n1 [Compound 185, 1-[3-(3-Fluoro-4-hydroxy-phenyl)-pyrido[2,3-b]pyrazin-6-yl]-3-((R)-1-methyl-4-phenyl-butyl)-urea] | – | 220 to 222 °C |
| O=C(NCCCCc1ccccc1)Nc1ccc2ncc(-c3ccc(O)c(Cl)c3)nc2n1 [Compound 186, 1-[3-(3-Chloro-4-hydroxy-phenyl)-pyrido[2,3-b]pyrazin-6-yl]-3-(4-phenyl-butyl)-urea] | – | 241 to 243 °C |
| C[C@H](CCCc1ccccc1)NC(=O)Nc1ccc2ncc(-c3ccc(C[C@H](N)C(=O)O)cc3)nc2n1 [Compound 195, (S)-2-Amino-3-(4-{6-[3-((R)-1-methyl-4-phenyl-butyl)-ureido]-pyrido[2,3-b]pyrazin-3-yl}-phenyl)-propionic acid; hydrochloride] | 1 nM | – |
| O=C(NCCCCc1ccccc1)Nc1ccc2ncc(-c3ccc(OCCN4CCOCC4)cc3)nc2n1 [Compound 202, 1-{3-[4-(2-Morpholin-4-yl-ethoxy)-phenyl]-pyrido[2,3-b]pyrazin-6-yl}-3-(4-phenyl-butyl)-urea] | 41 nM | – |

More lines, now with the values ahead:

| IC50 (Erk2) | melting point | Compound |
| --- | --- | --- |
| – | 218 to 220 °C | C[C@H](CCCc1ccccc1)NC(=O)Nc1ccc2ncc(-c3ccoc3)nc2n1 [Compound 149, 1-(3-Furan-3-yl-pyrido[2,3-b]pyrazin-6-yl)-3-((R)-1-methyl-4-phenyl-butyl)-urea] |
| – | 172 to 175 °C | C[C@H](CCCc1ccccc1)NC(=O)Nc1ccc2ncc(N3CCN(C)CC3)nc2n1 [Compound 153, 1-((R)-1-Methyl-4-phenyl-butyl)-3-[3-(4-methyl-piperazin-1-yl)-pyrido[2,3-b]pyrazin-6-yl]-urea] |
| – | 171 to 174 °C | C[C@H](CCCc1ccccc1)NC(=O)Nc1ccc2ncc(N3CCCCC3)nc2n1 [Compound 154, 1-((R)-1-Methyl-4-phenyl-butyl)-3-(3-piperidin-1-yl-pyrido[2,3-b]pyrazin-6-yl)-urea] |
| 2 nM | 223 to 226 °C | C[C@H](CCCc1ccccc1)NC(=O)Nc1ccc2ncc(-c3ccncc3)nc2n1 [Compound 157, 1-((R)-1-Methyl-4-phenyl-butyl)-3-(3-pyridin-4-yl-pyrido[2,3-b]pyrazin-6-yl)-urea] |
| 1 nM | 168 to 170 °C | COc1c(CO)cccc1-c1cnc2ccc(NC(=O)N[C@H](C)CCCc3ccccc3)nc2n1 [Compound 158, 1-[3-(3-Hydroxymethyl-2-methoxy-phenyl)-pyrido[2,3-b]pyrazin-6-yl]-3-((R)-1-methyl-4-phenyl-butyl)-urea] |
| 2 nM | – | O=C(NCCCCc1ccccc1)Nc1ccc2ncc(-c3cnn(CCCO)c3)nc2n1 [Compound 162, 1-{3-[1-(3-Hydroxy-propyl)-1H-pyrazol-4-yl]-pyrido[2,3-b]pyrazin-6-yl}-3-(4-phenyl-butyl)-urea] |
| 3 nM | 187 to 190 °C | C[C@H](CCCc1ccccc1)NC(=O)Nc1ccc2ncc(-c3ccc(CO)cc3)nc2n1 [Compound 167, 1-[3-(4-Hydroxymethyl-phenyl)-pyrido[2,3-b]pyrazin-6-yl]-3-((R)-1-methyl-4-phenyl-butyl)-urea] |
| 4 nM | 274 to 276 °C | C[C@H](CCCc1ccccc1)NC(=O)Nc1ccc2ncc(-c3cn[nH]c3)nc2n1 [Compound 171, 1-((R)-1-Methyl-4-phenyl-butyl)-3-[3-(1H-pyrazol-4-yl)-pyrido[2,3-b]pyrazin-6-yl]-urea] |
| 5 nM | 204 to 206 °C | O=C(NCCCCc1ccccc1)Nc1ccc2ncc(N3CCCC3)nc2n1 [Compound 172, 1-(4-Phenyl-butyl)-3-(3-pyrrolidin-1-yl-pyrido[2,3-b]pyrazin-6-yl)-urea] |
| 5 nM | 187 to 190 °C | C[C@H](CCCc1ccccc1)NC(=O)Nc1ccc2ncc(N3CCCC3)nc2n1 [Compound 173, 1-((R)-1-Methyl-4-phenyl-butyl)-3-(3-pyrrolidin-1-yl-pyrido[2,3-b]pyrazin-6-yl)-urea] |
| 6 nM | – | O=C(NCCCCc1ccccc1)Nc1ccc2ncc(-c3cccc(CO)c3)nc2n1 [Compound 175, 1-[3-(3-Hydroxymethyl-phenyl)-pyrido[2,3-b]pyrazin-6-yl]-3-(4-phenyl-butyl)-urea] |
| 6 nM | 200 to 202 °C | O=C(NCCCCc1ccccc1)Nc1ccc2ncc(N3CCOCC3)nc2n1 [Compound 176, 1-(3-Morpholin-4-yl-pyrido[2,3-b]pyrazin-6-yl)-3-(4-phenyl-butyl)-urea] |
| 6 nM | – | C[C@H](CCCc1ccccc1)NC(=O)Nc1ccc2ncc(-c3cccc(CO)c3)nc2n1 [Compound 181, 1-[3-(3-Hydroxymethyl-phenyl)-pyrido[2,3-b]pyrazin-6-yl]-3-((R)-1-methyl-4-phenyl-butyl)-urea] |
| – | 219 to 222 °C | O=C(NCCCCc1ccccc1)Nc1ccc2ncc(-c3ccncc3)nc2n1 [Compound 184, 1-(4-Phenyl-butyl)-3-(3-pyridin-4-yl-pyrido[2,3-b]pyrazin-6-yl)-urea] |
| 4 nM | – | O=C(NCCCCc1ccccc1)Nc1ccc2ncc(-c3cnn(CCO)c3)nc2n1 [Compound 189, 1-{3-[1-(2-Hydroxy-ethyl)-1H-pyrazol-4-yl]-pyrido[2,3-b]pyrazin-6-yl}-3-(4-phenyl-butyl)-urea] |
| 1 nM | – | COc1cc(-c2cnc3ccc(NC(=O)NCCCCc4ccccc4)nc3n2)ccc1C(=O)O [Compound 194, 2-Methoxy-4-{6-[3-(4-phenyl-butyl)-ureido]-pyrido[2,3-b]pyrazin-3-yl}-benzoic acid] |
| 24 nM | – | COCc1cccc(-c2cnc3ccc(NC(=O)N[C@H](C)CCCc4ccccc4)nc3n2)c1 [Compound 203, 1-[3-(3-Methoxymethyl-phenyl)-pyrido[2,3-b]pyrazin-6-yl]-3-((R)-1-methyl-4-phenyl-butyl)-urea] |
